Laboratory results taken from EP1674110A1, “Inhibition of bradykinin release” (priority 1999, dated 2000).

Legend:
[1] = biological target: HBP (heparin-binding protein, CAP37); conditions: lipid A component of LPS and endotoxin binding to HBP; read-out: Kass (converted); cited from earlier work
[2] = system: endothelial cells (HUVEC or BAEC); assay: Transendothelial electrical resistance (TEER) after CD18 cross-linking of PMNs; format: cell-based; conditions: endothelial cells pre-treated with BAPTA AM; concentration not given
Description: Human umbilical vein endothelial cells (HUVEC) and bovine aorta endothelial cells (BAEC) are isolated and cultured as previously described (Gautam et al. 1998, Brit. J. Pharm. 125:1109-1114). HUVEC or BAEC in the first to fifth passages are detached by brief (2 min) trypsin-EDTA treatment (0.25% trypsin/0.01 % EDTA) and replated onto either 0.2 µm pore size Anopore inorganic membrane or 3.0 µm pore size polycarbonate filters (Tissue Culture inserts, 10 mm; NUNC, Roskilde, Denmark). In order to promote cellular differentiation and enhance attachment of endothelial cells (ECs), the filters are pretreated with 50 µl Biomatrix I (167 µg/ml) and air-dried. […] The EC are grown to confluent monolayers, as assessed by daily microscopic observation and measurement of the electrical resistance across the monolayer (Gautam et al. 1998, Brit. J. Pharm. 125:1109-1114).
Two different approaches are used for assessment of stimulation-induced changes in EC permeability. […] Electrical resistance across the EC monolayer is measured at 37°C with electrodes in each compartment exactly positioned in relation to each other and to the monolayer. The electrical resistance of individual EC monolayers is obtained by subtracting the resistance of the corresponding naked filter coated with Biomatrix as measured prior to seeding of the endothelial cells. […]

BAEC monolayers = assay: EC intracellular free Ca2+ (fluo-3) after CD18 cross-linking of PMNs; format: cell-based, bovine; conditions: endothelial cells pre-treated with BAPTA AM; concentration not given
Description: The Ca^2+ sensitive fluorescent probe fluo-3/AM (Molecular Probes Europe BV, Leiden, The Netherlands) is used for determination of changes in EC intracellular free Ca^2+. Confluent BAEC monolayers on filters are incubated for 30 min at 37°C with fluo-3/AM (3µM in HBSS containing 2% FCS and 10 mM HEPES) added to both the apical and basolateral surface. The monolayers are washed three times and incubated with fresh HBSS in the dark for 20 min at room temperature to allow complete hydrolysis of the dye ester. Anti-CD18 or anti-L-selectin mAb treated PMNs are added to ECs and receptor cross-linking is induced with secondary mAb as described above. In separate experiments, PMN secretion containing medium (see above) is used to stimulate ECs in the absence of PMNs. Changes in EC [Ca^2+]i in response to these stimuli are measured through continuous registration of fluorescence intensity with a laser-scanning confocal imaging system (Insight Plus; Meridian Instruments Inc., Okemon, Michigan).
Monolayers of endothelial cells are labelled with the Ca^2+-sensitive fluorophore fluo-3, and stimulus-induced changes in EC [Ca^2+]i monitored by confocal laser scanning microscopy. Adding anti-CD18 treated PMNs to the EC monolayer caused no change in EC [Ca^2+]. […]

In the case of lipid A, the Kd [1] is listed as 1.25 nM.

In the case of `CC(=O)OCOC(=O)CN(CC(=O)OCOC(C)=O)c1ccccc1OCCOc1ccccc1N(CC(=O)OCOC(C)=O)CC(=O)OCOC(C)=O` [BAPTA AM], the “change in TEER in response to CD18 cross-linking” value [2] is reported as “completely inhibited” and the “rise in EC free intracellular Ca^2+ in response to CD18 cross-linking” value (BAEC monolayers) is reported as “completely inhibited”.
